What was measured:
[1] = target: Calcium/calmodulin-dependent protein kinase type 1 (Homo sapiens) (UniProt Q14012); conditions: Compound concentration 100.0 nM
[2] = target: Ribosomal protein S6 kinase alpha-4 (Homo sapiens) (UniProt O75676); conditions: Compound concentration 100.0 nM
[3] = target: 5-hydroxytryptamine receptor 7 (Homo sapiens) (UniProt P34969); conditions: Compound concentration 10.0 uM
[4] = target: Serine/threonine-protein kinase PLK3 (Homo sapiens) (UniProt Q9H4B4); conditions: Compound concentration 100.0 nM
[5] = target: Casein kinase I isoform alpha (Homo sapiens) (UniProt P48729); conditions: Compound concentration 100.0 nM
[6] = target: Serine/threonine-protein kinase Nek10 (Homo sapiens) (UniProt Q6ZWH5); conditions: Compound concentration 100.0 nM
[7] = target: Muscarinic acetylcholine receptor M2 (Homo sapiens) (UniProt P08172); conditions: Compound concentration 10.0 uM
[8] = target: cGMP-dependent protein kinase 2 (Homo sapiens) (UniProt Q13237); conditions: Compound concentration 100.0 nM
[9] = target: Ephrin type-A receptor 7 (Homo sapiens) (UniProt Q15375); conditions: Compound concentration 100.0 nM
[10] = target: Cyclin-dependent kinase 2 homolog (Plasmodium falciparum (isolate 3D7)) (UniProt P61075); conditions: Compound concentration 100.0 nM
[11] = target: 5-hydroxytryptamine receptor 1B (Homo sapiens) (UniProt P28222); conditions: Compound concentration 10.0 uM
[12] = system: Receptor-type tyrosine-protein kinase FLT3 (Homo sapiens), P36888 [N841I]; conditions: Compound concentration 100.0 nM
[13] = target: Dual specificity mitogen-activated protein kinase kinase 2 (Homo sapiens) (UniProt P36507); conditions: Compound concentration 100.0 nM
[14] = target: Mitogen-activated protein kinase 8 (Homo sapiens) (UniProt P45983); conditions: Compound concentration 100.0 nM
[15] = target: Serine/threonine-protein kinase ULK3 (Homo sapiens) (UniProt Q6PHR2); conditions: Compound concentration 100.0 nM
[16] = target: Phosphatidylinositol 5-phosphate 4-kinase type-2 beta (Homo sapiens) (UniProt P78356); conditions: Compound concentration 100.0 nM
[17] = target: Serine/threonine-protein kinase 32C (Homo sapiens) (UniProt Q86UX6); conditions: Compound concentration 100.0 nM
[18] = target: Serine/threonine-protein kinase PAK 6 (Homo sapiens) (UniProt Q9NQU5); conditions: Compound concentration 100.0 nM
[19] = target: Cyclin-dependent kinase 15 (Homo sapiens) (UniProt Q96Q40); conditions: Compound concentration 100.0 nM
[20] = target: Serine/threonine-protein kinase SBK1 (Homo sapiens) (UniProt Q52WX2); conditions: Compound concentration 100.0 nM
[21] = target: Serine/threonine-protein kinase PLK4 (Homo sapiens) (UniProt O00444); conditions: Compound concentration 100.0 nM
[22] = target: Myotonin-protein kinase (Homo sapiens) (UniProt Q09013); conditions: Compound concentration 100.0 nM
[23] = target: MAP/microtubule affinity-regulating kinase 4 (Homo sapiens) (UniProt Q96L34); conditions: Compound concentration 100.0 nM
[24] = target: Serine/threonine-protein kinase TAO2 (Homo sapiens) (UniProt Q9UL54); conditions: Compound concentration 100.0 nM
[25] = target: Ephrin type-A receptor 2 (Homo sapiens) (UniProt P29317); conditions: Compound concentration 100.0 nM
[26] = system: Phosphatidylinositol 4,5-bisphosphate 3-kinase catalytic subunit alpha isoform (Homo sapiens), P42336 [E545K]; conditions: Compound concentration 100.0 nM
[27] = target: Ephrin type-A receptor 8 (Homo sapiens) (UniProt P29322); conditions: Compound concentration 100.0 nM
[28] = target: Serine/threonine-protein kinase N2 (Homo sapiens) (UniProt Q16513); conditions: Compound concentration 100.0 nM
[29] = target: Calcium/calmodulin-dependent protein kinase kinase 1 (Homo sapiens) (UniProt Q8N5S9); conditions: Compound concentration 100.0 nM
[30] = target: Ankyrin repeat and protein kinase domain-containing protein 1 (Homo sapiens) (UniProt Q8NFD2); conditions: Compound concentration 100.0 nM
[31] = target: Serine/threonine-protein kinase 16 (Homo sapiens) (UniProt O75716); conditions: Compound concentration 100.0 nM
[32] = target: Muscarinic acetylcholine receptor M1 (Homo sapiens) (UniProt P11229); conditions: Compound concentration 10.0 uM
[33] = target: Mitogen-activated protein kinase kinase kinase 20 (Homo sapiens, UniProt Q9NYL2); conditions: Compound concentration 100.0 nM
[34] = target: Serine/threonine-protein kinase ICK (Homo sapiens) (UniProt Q9UPZ9); conditions: Compound concentration 100.0 nM
[35] = target: Serine/threonine-protein kinase mTOR (Homo sapiens) (UniProt P42345); conditions: Compound concentration 100.0 nM
[36] = target: Ribosomal protein S6 kinase beta-1 (Homo sapiens) (UniProt P23443); conditions: Compound concentration 100.0 nM
[37] = target: Protein kinase C delta type (Homo sapiens) (UniProt Q05655); conditions: Compound concentration 100.0 nM
[38] = target: Death-associated protein kinase 2 (Homo sapiens) (UniProt Q9UIK4); conditions: Compound concentration 100.0 nM
[39] = system: Tyrosine-protein kinase ABL1 (Homo sapiens), P00519 [Q252H]; conditions: Compound concentration 100.0 nM
[40] = target: Cyclin-dependent kinase 14 (Homo sapiens) (UniProt O94921); conditions: Compound concentration 100.0 nM
[41] = target: Alpha-1D adrenergic receptor (Homo sapiens) (UniProt P25100); conditions: Compound concentration 10.0 uM
[42] = target: Calcium/calmodulin-dependent protein kinase type 1G (Homo sapiens) (UniProt Q96NX5); conditions: Compound concentration 100.0 nM
[43] = target: RAC-alpha serine/threonine-protein kinase (Homo sapiens) (UniProt P31749); conditions: Compound concentration 100.0 nM
[44] = target: Cyclin-dependent kinase 3 (Homo sapiens) (UniProt Q00526); conditions: Compound concentration 100.0 nM
[45] = target: Myosin-IIIa (Homo sapiens) (UniProt Q8NEV4); conditions: Compound concentration 100.0 nM

Phosphatidylinositol 5-phosphate 4-kinase type-2 beta (Homo sapiens), sequence (P78356 whole entry): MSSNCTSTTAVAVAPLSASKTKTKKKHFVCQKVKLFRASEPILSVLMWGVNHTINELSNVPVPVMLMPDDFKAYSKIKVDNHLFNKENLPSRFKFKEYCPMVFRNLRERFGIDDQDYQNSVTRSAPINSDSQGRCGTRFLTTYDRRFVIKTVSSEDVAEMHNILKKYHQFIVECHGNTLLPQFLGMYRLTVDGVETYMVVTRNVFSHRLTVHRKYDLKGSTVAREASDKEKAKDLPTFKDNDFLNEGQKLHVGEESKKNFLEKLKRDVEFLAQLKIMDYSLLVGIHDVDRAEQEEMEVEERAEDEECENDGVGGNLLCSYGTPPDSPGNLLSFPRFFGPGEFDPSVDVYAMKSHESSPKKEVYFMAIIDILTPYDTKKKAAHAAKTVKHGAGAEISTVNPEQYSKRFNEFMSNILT
Cyclin-dependent kinase 15 (Homo sapiens), sequence (Q96Q40 whole entry): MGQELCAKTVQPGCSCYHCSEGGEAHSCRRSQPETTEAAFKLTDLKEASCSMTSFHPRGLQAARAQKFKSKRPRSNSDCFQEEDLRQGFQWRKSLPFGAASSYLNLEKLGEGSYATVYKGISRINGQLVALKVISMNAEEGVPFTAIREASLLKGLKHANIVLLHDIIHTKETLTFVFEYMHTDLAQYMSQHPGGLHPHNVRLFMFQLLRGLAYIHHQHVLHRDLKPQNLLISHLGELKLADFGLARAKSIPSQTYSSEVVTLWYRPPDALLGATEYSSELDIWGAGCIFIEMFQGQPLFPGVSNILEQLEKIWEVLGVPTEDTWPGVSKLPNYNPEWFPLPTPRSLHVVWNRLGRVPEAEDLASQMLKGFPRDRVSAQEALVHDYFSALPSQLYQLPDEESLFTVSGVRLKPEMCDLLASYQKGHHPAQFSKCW
Death-associated protein kinase 2 (Homo sapiens), sequence (Q9UIK4 whole entry, looked up): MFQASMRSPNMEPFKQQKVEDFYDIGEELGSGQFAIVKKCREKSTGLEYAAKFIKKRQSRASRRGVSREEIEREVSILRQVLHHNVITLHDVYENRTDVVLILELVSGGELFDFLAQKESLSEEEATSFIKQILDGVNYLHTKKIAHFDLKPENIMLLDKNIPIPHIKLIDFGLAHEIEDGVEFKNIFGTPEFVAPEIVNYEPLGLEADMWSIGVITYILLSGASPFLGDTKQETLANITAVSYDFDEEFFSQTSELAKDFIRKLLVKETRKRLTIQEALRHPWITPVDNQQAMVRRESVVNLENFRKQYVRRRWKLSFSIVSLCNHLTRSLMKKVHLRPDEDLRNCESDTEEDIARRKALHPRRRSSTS
Mitogen-activated protein kinase 8 (Homo sapiens), sequence (P45983 whole entry): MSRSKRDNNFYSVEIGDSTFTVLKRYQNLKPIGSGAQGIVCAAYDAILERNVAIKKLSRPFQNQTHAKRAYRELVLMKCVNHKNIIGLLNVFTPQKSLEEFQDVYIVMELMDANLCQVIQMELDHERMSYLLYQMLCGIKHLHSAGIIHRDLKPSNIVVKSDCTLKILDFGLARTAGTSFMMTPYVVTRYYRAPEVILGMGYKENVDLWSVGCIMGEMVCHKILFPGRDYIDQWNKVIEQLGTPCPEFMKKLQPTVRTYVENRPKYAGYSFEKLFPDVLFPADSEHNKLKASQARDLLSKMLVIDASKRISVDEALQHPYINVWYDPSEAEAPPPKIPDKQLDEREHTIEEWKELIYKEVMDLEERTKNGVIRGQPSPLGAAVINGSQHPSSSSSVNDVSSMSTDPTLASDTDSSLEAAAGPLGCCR
Calcium/calmodulin-dependent protein kinase type 1G (Homo sapiens), sequence (Q96NX5 whole entry): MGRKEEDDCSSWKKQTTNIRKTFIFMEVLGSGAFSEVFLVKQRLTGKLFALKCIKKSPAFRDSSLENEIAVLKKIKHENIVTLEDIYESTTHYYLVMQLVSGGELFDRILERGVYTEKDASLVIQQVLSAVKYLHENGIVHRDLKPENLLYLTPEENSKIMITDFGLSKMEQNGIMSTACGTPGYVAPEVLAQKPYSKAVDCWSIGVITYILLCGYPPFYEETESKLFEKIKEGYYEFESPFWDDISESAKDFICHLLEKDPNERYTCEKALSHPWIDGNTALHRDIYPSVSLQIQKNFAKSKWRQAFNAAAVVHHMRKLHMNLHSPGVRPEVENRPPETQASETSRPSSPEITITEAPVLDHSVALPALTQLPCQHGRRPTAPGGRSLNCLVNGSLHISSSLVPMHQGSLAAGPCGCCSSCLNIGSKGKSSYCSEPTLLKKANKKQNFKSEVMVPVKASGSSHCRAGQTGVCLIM
Ankyrin repeat and protein kinase domain-containing protein 1 (Homo sapiens), sequence (Q8NFD2 whole entry, the tested form may be a part): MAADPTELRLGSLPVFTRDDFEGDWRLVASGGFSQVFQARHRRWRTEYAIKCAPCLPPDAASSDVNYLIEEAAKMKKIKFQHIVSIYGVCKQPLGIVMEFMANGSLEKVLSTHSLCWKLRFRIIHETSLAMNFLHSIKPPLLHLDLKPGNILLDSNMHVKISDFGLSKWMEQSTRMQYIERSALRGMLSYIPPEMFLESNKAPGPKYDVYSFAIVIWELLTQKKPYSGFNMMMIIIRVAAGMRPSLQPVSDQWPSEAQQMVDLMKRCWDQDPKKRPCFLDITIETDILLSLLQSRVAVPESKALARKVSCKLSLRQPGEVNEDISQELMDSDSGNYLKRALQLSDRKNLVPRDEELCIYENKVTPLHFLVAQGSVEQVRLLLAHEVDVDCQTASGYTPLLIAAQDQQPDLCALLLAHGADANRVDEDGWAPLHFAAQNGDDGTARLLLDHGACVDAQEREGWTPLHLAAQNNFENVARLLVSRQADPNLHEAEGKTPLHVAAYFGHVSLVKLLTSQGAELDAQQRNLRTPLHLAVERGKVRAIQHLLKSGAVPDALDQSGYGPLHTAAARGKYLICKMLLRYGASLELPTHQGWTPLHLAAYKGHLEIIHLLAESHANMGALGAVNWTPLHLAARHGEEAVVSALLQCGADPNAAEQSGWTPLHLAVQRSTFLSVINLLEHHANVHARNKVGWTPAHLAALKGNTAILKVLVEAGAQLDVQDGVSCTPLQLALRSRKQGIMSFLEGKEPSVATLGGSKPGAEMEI
Protein kinase C delta type (Homo sapiens), sequence (Q05655 whole entry, looked up): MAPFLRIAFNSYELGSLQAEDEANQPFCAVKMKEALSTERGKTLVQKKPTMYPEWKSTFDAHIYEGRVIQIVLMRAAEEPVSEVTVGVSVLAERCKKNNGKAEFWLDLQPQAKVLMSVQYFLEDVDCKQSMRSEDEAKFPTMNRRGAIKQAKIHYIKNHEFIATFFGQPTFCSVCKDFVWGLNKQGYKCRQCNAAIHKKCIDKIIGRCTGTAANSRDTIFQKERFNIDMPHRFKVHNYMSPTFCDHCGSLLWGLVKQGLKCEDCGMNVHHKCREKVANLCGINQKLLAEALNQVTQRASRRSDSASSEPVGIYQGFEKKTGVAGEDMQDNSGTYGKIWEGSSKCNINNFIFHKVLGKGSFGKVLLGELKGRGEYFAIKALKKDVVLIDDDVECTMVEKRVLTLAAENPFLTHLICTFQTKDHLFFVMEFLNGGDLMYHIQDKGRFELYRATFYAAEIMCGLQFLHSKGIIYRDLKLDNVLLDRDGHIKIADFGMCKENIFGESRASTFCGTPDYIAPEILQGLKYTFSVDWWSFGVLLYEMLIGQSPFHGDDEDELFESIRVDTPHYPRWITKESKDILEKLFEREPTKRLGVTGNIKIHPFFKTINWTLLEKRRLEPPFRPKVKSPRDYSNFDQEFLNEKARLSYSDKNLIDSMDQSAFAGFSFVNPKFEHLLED
Ribosomal protein S6 kinase beta-1 (Homo sapiens), sequence (P23443 whole entry, looked up): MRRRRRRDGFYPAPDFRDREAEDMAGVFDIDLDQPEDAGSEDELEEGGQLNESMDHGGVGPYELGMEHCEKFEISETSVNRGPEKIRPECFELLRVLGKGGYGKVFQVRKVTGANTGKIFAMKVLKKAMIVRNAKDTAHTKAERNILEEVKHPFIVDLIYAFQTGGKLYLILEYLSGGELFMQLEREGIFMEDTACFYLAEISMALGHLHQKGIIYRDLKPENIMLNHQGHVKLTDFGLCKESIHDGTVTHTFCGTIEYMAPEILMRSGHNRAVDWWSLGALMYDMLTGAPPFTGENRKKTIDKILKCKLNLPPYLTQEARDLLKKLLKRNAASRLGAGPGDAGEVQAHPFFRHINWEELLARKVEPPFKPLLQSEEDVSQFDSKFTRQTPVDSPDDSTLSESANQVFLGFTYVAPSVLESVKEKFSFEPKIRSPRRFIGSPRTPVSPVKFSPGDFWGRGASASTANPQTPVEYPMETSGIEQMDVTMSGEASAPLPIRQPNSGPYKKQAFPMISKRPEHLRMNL
5-hydroxytryptamine receptor 1B (Homo sapiens), sequence (P28222 whole entry): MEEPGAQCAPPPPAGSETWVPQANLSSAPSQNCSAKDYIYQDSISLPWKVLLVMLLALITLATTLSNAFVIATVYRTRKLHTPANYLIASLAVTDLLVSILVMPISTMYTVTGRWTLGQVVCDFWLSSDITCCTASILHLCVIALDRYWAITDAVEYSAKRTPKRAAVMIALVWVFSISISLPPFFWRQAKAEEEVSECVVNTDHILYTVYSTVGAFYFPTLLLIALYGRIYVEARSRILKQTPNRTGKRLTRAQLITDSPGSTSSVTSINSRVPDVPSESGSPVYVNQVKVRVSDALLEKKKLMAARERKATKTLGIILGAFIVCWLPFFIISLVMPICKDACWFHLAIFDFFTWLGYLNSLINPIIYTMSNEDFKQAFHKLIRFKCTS
Serine/threonine-protein kinase 32C (Homo sapiens), sequence (Q86UX6 whole entry): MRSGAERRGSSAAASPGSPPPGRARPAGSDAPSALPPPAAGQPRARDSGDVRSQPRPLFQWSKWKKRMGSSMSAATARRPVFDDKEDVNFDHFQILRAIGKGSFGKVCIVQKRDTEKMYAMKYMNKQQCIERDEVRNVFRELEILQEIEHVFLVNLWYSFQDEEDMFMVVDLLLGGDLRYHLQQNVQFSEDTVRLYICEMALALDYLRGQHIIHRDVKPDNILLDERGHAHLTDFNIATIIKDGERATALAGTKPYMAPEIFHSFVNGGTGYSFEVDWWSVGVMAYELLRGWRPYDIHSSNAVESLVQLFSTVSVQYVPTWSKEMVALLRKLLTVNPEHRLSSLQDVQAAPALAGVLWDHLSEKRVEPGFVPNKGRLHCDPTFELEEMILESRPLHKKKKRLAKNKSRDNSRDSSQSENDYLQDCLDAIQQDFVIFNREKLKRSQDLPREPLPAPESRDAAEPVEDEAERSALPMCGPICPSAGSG

Nc1c(C(=O)NCc2ccc(C(=O)NCCCC3CCCCC3)cc2)cnn1-c1ccccc1 [SR-318]
residual activity [1]: 100%
residual activity [2]: 85%
inhibition [3]: 13.2%
residual activity [4]: 100%
residual activity [5]: 100%
residual activity [6]: 100%
inhibition [7]: 22.5%
residual activity [8]: 96%
residual activity [9]: 100%
residual activity [10]: 100%
inhibition [11]: 10.4%
residual activity [12]: 95%
residual activity [13]: 100%
residual activity [14]: 100%
residual activity [15]: 100%
residual activity [16]: 100%
residual activity [17]: 90%
residual activity [18]: 100%
residual activity [19]: 95%
residual activity [20]: 82%
residual activity [21]: 100%
residual activity [22]: 77%
residual activity [23]: 76%
residual activity [24]: 100%
residual activity [25]: 100%
residual activity [26]: 91%
residual activity [27]: 100%
residual activity [28]: 78%
residual activity [29]: 100%
residual activity [30]: 100%
residual activity [31]: 100%
inhibition [32]: 31.1%
residual activity [33]: 42%
residual activity [34]: 100%
residual activity [35]: 100%
residual activity [36]: 100%
residual activity [37]: 88%
residual activity [38]: 100%
residual activity [39]: 98%
residual activity [40]: 100%
inhibition [41]: 22%
residual activity [42]: 100%
residual activity [43]: 100%
residual activity [44]: 100%
residual activity [45]: 100%

O=C(NCCCC1CCCCC1)c1ccc(CNC(=O)c2cnn(-c3ccccc3)c2C(F)(F)F)cc1 [SR-321]
residual activity [1]: 100%
residual activity [2]: 83%
inhibition [3]: 25.8%
residual activity [4]: 100%
residual activity [5]: 99%
residual activity [6]: 100%
inhibition [7]: 19.3%
residual activity [8]: 89%
residual activity [9]: 86%
residual activity [10]: 100%
inhibition [11]: 9.89%
residual activity [12]: 88%
residual activity [13]: 93%
residual activity [14]: 99%
residual activity [15]: 100%
residual activity [16]: 96%
residual activity [17]: 100%
residual activity [18]: 100%
residual activity [19]: 77%
residual activity [20]: 100%
residual activity [21]: 96%
residual activity [22]: 83%
residual activity [23]: 98%
residual activity [24]: 89%
residual activity [25]: 80%
residual activity [26]: 68%
residual activity [27]: 95%
residual activity [28]: 100%
residual activity [29]: 100%
residual activity [30]: 100%
residual activity [31]: 100%
inhibition [32]: 11.8%
residual activity [33]: 100%
residual activity [34]: 79%
residual activity [35]: 100%
residual activity [36]: 96%
residual activity [37]: 100%
residual activity [38]: 98%
residual activity [39]: 98%
residual activity [40]: 100%
inhibition [41]: 10.1%
residual activity [42]: 100%
residual activity [43]: 100%
residual activity [44]: 100%
residual activity [45]: 98%
